Measured values from US8501910B2, “Protein sweetener” (Wisconsin Alumni Research Foundation, priority 2007, dated 2013).

System: humans
Assay: Human taste panel scoring sweetness on a magnitude labeled scale
Format: in vivo
Conditions: for sweetness potency: FIG. 1, human taste panel, varied concentrations diluted in water, compared for the weight being tested
Source text: To test the sweetness potency of our peptides we tested human perception of sweetness against known controls using varied concentrations of the protein (or other substance) being diluted in water. In the taste panel, humans were requested to score the sweetness sensations of the stimuli with a magnitude labeled scale in accordance with the techniques of B. Green et al., 21 Chemical Senses 323 (1996) (e.g. barely detectable; weak; moderate; strong; very strong; strongest imaginable).
We first gave those testers a sample of pure water with 2-10% sucrose as a calibration exercise two hours before protein testing. After the sucrose testing, they rinsed their mouth out thoroughly. The normal protocol included applying about 125 μI of the substance being tasted to the tongue, with the tested material kept in the mouth for about a minute.

Substance | sweetness potency (individual observer) (tested by one individual observer, not a complete panel) | sweetness potency
SEQ ID NO. 4: Brazzein variant with tyrosine at position 53 of SEQ ID NO: 1 replaced by another amino acid (probably Phe) (DKCKKVYENYPVSKCQLANQCNYDCKLKKHARSGECFYDEKRNLQCICDYCEF) | results similar to those for SEQ ID NO.5 | 
SEQ ID NO. 5: Brazzein variant Y53W: tyrosine at position 53 of SEQ ID NO: 1 replaced (DKCKKVYENYPVSKCQLANQCNYDCKLKKHARSGECFYDEKRNLQCICDYCEW) |  | significantly higher sweetness potency than either sucrose or wild type Brazzein
SEQ ID NO. 6: Brazzein variant Y53H: tyrosine at position 53 of SEQ ID NO: 1 replaced (DKCKKVYENYPVSKCQLANQCNYDCKLKKHARSGECFYDEKRNLQCICDYCEH) |  | significantly higher sweetness potency than sucrose
SEQ ID NO. 7: Brazzein variant with Ile Ile inserted at the N terminus of wild type Brazzein (IIDKCKKVYENYPVSKCQLANQCNYDCKLNKHARSGECFYDEKRNLQCICDYCEY) |  | significantly higher sweetness potency than either sucrose or wild type Brazzein
SEQ ID NO. 8: Brazzein variant with Gly Pro inserted at the N terminus of wild type Brazzein (GPDKCKKVYENYPVSKCQLANQCNYPCKLNKHARSGECFYDEKRNLQCICDYCEY) |  | significantly higher sweetness potency than either sucrose or wild type Brazzein
